Assay results from patent US9181290B2, “Inhibition of biofilm formation by 1,2,3,4,6-penta-O-galloyl-D-glucopyranose” (CHANG GUNG UNIVERSITY, priority 2011, dated 2015).

Tests used:
[1] = system: S. aureus SA113 (ATCC 35556); test: Biofilm formation on polycarbonate discs (crystal violet); type: cell-based; details: Staphylococcus aureus, ATCC35556, 6 hours, read-out: inhibition of biofilm formation on polycarbonate surface
Procedure: To quantify the amount of biofilm formed on polycarbonate surface, a 13-mm-diameter polycarbonate disc (Thermanox, Nalgene Nunc International, Rochester, N.Y., USA) was placed in a well of a 24-well microtiter plate, followed by the addition of 1 mL aliquot of the diluted bacterial culture. After incubation at 37° C. for a designated period of time, viable cells were washed off the surface of the polycarbonate disc with PBS and counted as described above, while the PBS-washed polycarbonate disc was subjected to crystal violet staining for biofilm quantification as described above.
To determine the effect(s) of (β-PGG upon bacterial growth and biofilm formation, β-PGG in various amounts (final concentration: 0, 1.56, 3.13, 6.25, 12.5, 25 and 50 μM) was added into the culture of S. aureus SA113 during seeding into the wells of polystyrene microtiter plates, followed by incubation at 37° C. for 6 hrs or 24 hrs. Cell growth was determined by measuring the absorbance at 578 nm, and the amount of biofilm formed on polystyrene surface was determined at 595 nm after crystal violet staining. In addition to polystyrene surface, the effect of β-PGG in inhibiting biofilm formation on polycarbonate surface was also examined according to the procedures as described in the preceding section entitled “Materials and methods.”

S. aureus SA113 = test: Biofilm formation on β-PGG/polyaniline-coated polystyrene wells (safranin staining); type: cell-based, Staphylococcus aureus; details: polyaniline carrier, 24 hrs
Procedure: β-PGG (stock conc.: 8.89 μg/mL in DMSO) in various amounts was evenly mixed with a fixed amount of polyaniline (40 μL, 3 mg/mL in DMSO) so as to provide a 100 μL β-PGG/polyaniline mixture with a final β-PGG concentration of 0.47 μM, 0.94 μM, 1.89 μM, 3.78 μM, 4.73 μM or 5.67 μM. The resultant β-PGG/polyaniline mixture was coated on the inner surfaces of the wells of 96-well polystyrene microtiter plates in an amount of 100 μL per well. After β-PGG coating, the plates were dried in a vacuum chamber, followed by UV sterilization for 30 min. An overnight culture of S. aureus SA113 was 200-fold diluted with TSBg, and a 200 μL aliquot of the diluted culture was seeded into each well of the β-PGG-coated microtiter plates. After culturing at 37° C. for 24 hrs, the wells were washed twice with PBS, and then examined by safranin staining according to a method described earlier (Christine Heilmann et al. (1996), Infect. Immun., 64 (1):277-282), so as to quantify the amount of biofilm formed on the β-PGG-coated polystyrene surface.

[2] = system: S. aureus clinical strain SA288 (MSSA); test: Growth (A578) and biofilm (A595) in polystyrene plates; type: cell-based, Staphylococcus aureus; details: 12.5 μM β-PGG, 6 hr
Procedure: (§1) An overnight bacterial culture was 200-fold diluted with TSBg, and a 200 μL aliquot of the diluted culture was seeded into each well of 96-well polystyrene microtiter plates and incubated at 37° C. for a designated period of time. Cell growth was determined by measuring the absorbance at 578 nm (A578) with a microtiter plate reader (SpectraMax 340, Molecular Devices). After washing with PBS twice to remove suspended cells, the wells were stained with 0.1% (w/v) crystal violet in 10% ethanol and then treated with 30% acetic acid in dH2O, followed by detecting the absorbance at 595 nm (A595) with the microtiter plate reader to quantify the amount of biofilm formed on polystyrene surface.

[3] = system: S. aureus clinical strain SA435 (MRSA); test: as above; type: cell-based, Staphylococcus aureus; details: 12.5 μM β-PGG, 6 hr
Procedure: as §1

[4] = system: S. aureus clinical strain SA33 (MSSA); test: as above; type: cell-based, Staphylococcus aureus; details: 12.5 μM β-PGG, 6 hr
Procedure: as §1

[5] = system: S. aureus clinical strain SA486 (MRSA); test: as above; type: cell-based, Staphylococcus aureus; details: 12.5 μM β-PGG, 6 hr
Procedure: as §1

[6] = system: S. aureus clinical strain SAChu (MRSA); test: as above; type: cell-based, Staphylococcus aureus; details: 12.5 μM β-PGG, 6 hr
Procedure: as §1

[7] = system: S. aureus clinical strain SA289 (MSSA); test: as above; type: cell-based, Staphylococcus aureus; details: 12.5 μM β-PGG, 6 hr
Procedure: as §1

[8] = system: S. aureus clinical strain SA13 (MSSA); test: as above; type: cell-based, Staphylococcus aureus; details: 12.5 μM β-PGG, 6 hr
Procedure: as §1

[9] = system: S. aureus clinical strain SA285 (MSSA); test: as above; type: cell-based, Staphylococcus aureus; details: 12.5 μM β-PGG, 6 hr
Procedure: as §1

[10] = system: S. aureus clinical strain SA130 (MRSA); test: as above; type: cell-based, Staphylococcus aureus; details: 12.5 μM β-PGG, 6 hr
Procedure: as §1

[11] = system: S. aureus clinical strain SA703 (MRSA); test: as above; type: cell-based, Staphylococcus aureus; details: 12.5 μM β-PGG, 6 hr
Procedure: as §1

[12] = system: S. aureus clinical strain SA41 (MSSA); test: as above; type: cell-based, Staphylococcus aureus; details: 12.5 μM β-PGG, 6 hr
Procedure: as §1

[13] = system: S. aureus clinical strain SA44 (MRSA); test: as above; type: cell-based, Staphylococcus aureus; details: 12.5 μM β-PGG, 6 hr
Procedure: as §1

Structure (SMILES): O=C(OC[C@H]1O[C@@H](OC(=O)c2cc(O)c(O)c(O)c2)[C@H](OC(=O)c2cc(O)c(O)c(O)c2)[C@@H](OC(=O)c2cc(O)c(O)c(O)c2)[C@@H]1OC(=O)c1cc(O)c(O)c(O)c1)c1cc(O)c(O)c(O)c1 [β-PGG, 1,2,3,4,6-penta-O-galloyl-β-D-glucopyranose]
- inhibition at 6.25 µM ([1]; 6.25 μM): 75%
- inhibition at 12.5 µM ([1]; 12.5 μM): 96%
- inhibition at 25 µM ([1]; 25 μM): 99%
- biofilm formation on coated polystyrene wells (S. aureus SA113; coated with β-PGG at 1.9 μM or lower): slightly affected
- decrease of the amount of biofilm on coated polystyrene wells (S. aureus SA113; coated with β-PGG at a concentration higher than 3.8 μM): more than 90%
- Growth (A578) ([2]; 0 μM: 0.55 ± 0.01): 0.50 ± 0.01
- Biofilm (A595) ([2]; 0 μM: 0.83 ± 0.02): 0.10 ± 0.01
- Growth (A578) ([3]; 0 μM: 0.64 ± 0.10): 0.67 ± 0.09
- Biofilm (A595) ([3]; 0 μM: 0.97 ± 0.09): 0.46 ± 0.06
- Growth (A578) ([4]; 0 μM: 0.79 ± 0.01): 0.79 ± 0.04
- Biofilm (A595) ([4]; 0 μM: 0.80 ± 0.07): 0.13 ± 0.03
- Growth (A578) ([5]; 0 μM: 0.76 ± 0.08): 0.65 ± 0.02
- Biofilm (A595) ([5]; 0 μM: 1.94 ± 0.19): 0.26 ± 0.07
- Growth (A578) ([6]; 0 μM: 0.56 ± 0.02): 0.52 ± 0.04
- Biofilm (A595) ([6]; 0 μM: 8.06 ± 0.10): 0.77 ± 0.11
- Growth (A578) ([7]; 0 μM: 0.77 ± 0.02): 0.72 ± 0.07
- Biofilm (A595) ([7]; 0 μM: 1.16 ± 0.01): 0.35 ± 0.01
- Growth (A578) ([8]; 0 μM: 0.69 ± 0.09): 0.67 ± 0.06
- Biofilm (A595) ([8]; 0 μM: 0.98 ± 0.13): 0.12 ± 0.04
- Growth (A578) ([9]; 0 μM: 0.56 ± 0.09): 0.46 ± 0.03
- Biofilm (A595) ([9]; 0 μM: 0.86 ± 0.09): 0.16 ± 0.02
- Growth (A578) ([10]; 0 μM: 0.61 ± 0.12): 0.62 ± 0.17
- Biofilm (A595) ([10]; 0 μM: 3.05 ± 0.10): 0.32 ± 0.04
- Growth (A578) ([11]; 0 μM: 0.74 ± 0.10): 0.70 ± 0.07
- Biofilm (A595) ([11]; 0 μM: 2.33 ± 0.02): 0.88 ± 0.07
- Growth (A578) ([12]; 0 μM: 0.65 ± 0.02): 0.61 ± 0.05
- Biofilm (A595) ([12]; 0 μM: 1.67 ± 0.27): 0.36 ± 0.05
- Growth (A578) ([13]; 0 μM: 0.66 ± 0.08): 0.64 ± 0.04
- Biofilm (A595) ([13]; 0 μM: 1.33 ± 0.01): 0.46 ± 0.01
